Key:
miR-155-5p = miR-155-5p levels in CD14+ monocytes cultured with HDL+SAA1 (qRT-PCR); type: cell-based, human; settings: 24 h
Experimental: Quantitative RT-PCR (qRT-PCR). Total RNA was purified using the Direct-Zol™ RNA MiniPrep kit and total RNA (100 ng) was reverse transcribed into cDNA using the High-Capacity cDNA Reverse Transcription Kit (Applied Biosystems, Foster City, Calif.). Polymerase chain reactions (PCR) were performed on duplicate cDNA samples using TaqMan Universal PCR Master Mix, FAM-MGB dye-labeled Taqman® PTGS2 probe (Assay ID Hs00153133_m1, catalog #4331182), and a 7900 Real Time PCR System running Sequence Detector version 2.4 software, all from Applied Biosystems (Foster City, Calif.). […] For quantification of miR-155-5p expression, miRNA present in total RNA (10 ng) was converted to cDNA using the microRNA cDNA Reverse Transcription kit (Applied Biosystems, Foster City, Calif.). Polymerase chain reaction (PCR) was performed on duplicate cDNA samples using TaqMan Universal PCR Master Mix, Taqman® MicroRNA Assay for has-miR-155-5p (Assay ID #002623, catalog #4427975), and a 7900HT Fast Real-Time PCR System running Sequence Detector version 2.4 software (ThermoFisher Scientific, Waltham, Mass.). miR-155-5p expression was quantified relative to expression of U6 snRNA using the control sample as calibrator to calculate the difference in Ct values (ΔΔCt) and presented as relative mRNA expression.

CD14^+ monocytes = experiment: HDL+SAA1-induced cytokine secretion by ex vivo CD14+ monocytes (ELISA); type: cell-based, human; settings: for HDL+SAA1-mediated increases in cytokine secretion: 24 h
Experimental: Isolation of Peripheral Blood Monocytes. Peripheral blood monocytes were isolated using a two-step process. Peripheral blood was diluted with PBS at a 1:1 ratio, slowly overlaid onto 30 ml of Lymphoprep™ (catalog #07811, StemCell Technologies, Vancouver Canada) in a 50 ml conical tube, and centrifuged at 400×g for 25 min without braking. The peripheral blood mononuclear cell (PBMC) layer was carefully transferred to another 50 ml conical tube, washed with PBS, followed by two washes with FACS buffer (0.5 mM EDTA, 1% BSA, and 1% mouse serum in PBS). Monocytes subsets were identified and sorted by flow cytometry using the following antibodies: PE mouse anti-human CD45 clone HI30 (catalog #555483), BV421 mouse anti-human CD14 clone MφP9 (catalog #563743), and FITC mouse anti-human CD16 clone B73.1 (catalog #561308), and a FACS ARIA Fusion sorter equipped with 355, 407, 488, 532 and 640 nm LASER lines using FACS DIVA 8.0 software (all from BD Biosciences, San Jose, Calif.). The gating strategy identified a population of debris-free, single, live, ^SSCmoderate/high, CD45^+ cells from which CD14^+/CD16^− (classical), CD14^+/CD16^+ (intermediate), CD14^dim/CD16^+ (non-classical), and CD14^+ (classical and intermediate) cells were sorted and utilized for experiments, as indicated (Supplemental FIG. 4).
HDL+SAA1 Stimulation of Peripheral Blood Monocytes Subsets. […] As previously described, normal HDL was isolated from plasma obtained from healthy subjects by sequential KBr differential gradient ultracentrifugation at 330,000 g and extensive dialysis with 50 mM HEPES, 50 mM NaCL, 5 mM MgCl2 and 2 mM CaCl2, pH 7.0, at 4° C. Normal HDL was complexed with recombinant human serum amyloid A-1 at a 2:1 ratio by mixing and incubated at RT overnight to generate HDL+SAA1, which was filtered using a 100-kDa exclusion filter (Amicon Ultra Centrifuge Filters, Millipore, Darmstadt, Germany) to remove any uncomplexed SAA1. Normal HDL was also complexed with the amount of lipopolysaccharide (catalog # L4391, E. coli 0111:B4, y-irradiated, MilliporeSigma, St. Louis, Mo.) present in recombinant human SAA1. Additionally, classical CD14^+ monocytes were treated with the P2X7R antagonist, A438079, the IKK inhibitor, BAY-11-7082, the IKKβ (IKK-2) inhibitor, TPCA-1, or the selective COX-2 inhibitor, celexocib, all from MilliporeSigma(St. Louis, Mo.). Cells were also treated with the FPR2 antagonist, WRW4, or diclofenac from Tocris (Minneapolis, Minn.). The amount of IL-1β, IL-6, TNF-α and IL-10 secreted into cell culture supernatants was quantified using human DuoSet ELISA kits (R&D Systems) and data were acquired using a SpectraMax M2 spectrophotometer (Molecular Devices, San Jose, Calif.). Western blotting, as previously described^43, was performed using antibodies directed against COX-1 (catalog #160110) and COX-2 (catalog #160112), both from Cayman Chemical (Ann Arbor, Mich.). Equivalency of protein loading was established using an antibody directed against GAPDH (catalog #MAB5718) from R&D Systems (Minneapolis, Minn.). Western blots images were captured using an iBright FL1000 Western Blot Imaging System (ThermoFisher Scientific, Waltham, Mass.) and quantified using NIH ImageJ software (imagej.nih.gov). […]

[1] = A438079 10 μM, pre-treated 1 h, HDL+SAA1 24 h

SMILES: Clc1cccc(-c2nnnn2Cc2cccnc2)c1Cl [A438079]
- HDL+SAA1-mediated increases in miR-155-5p (miR-155-5p; A438079 10 μM): significantly reduced
- HDL+SAA1-mediated secretion of IL-1β (CD14^+ monocytes; [1]): significantly reduced
- HDL+SAA1-mediated secretion of IL-6 (CD14^+ monocytes; [1]): significantly reduced
- HDL+SAA1-mediated secretion of IL-10 (CD14^+ monocytes; [1]): significantly reduced
- HDL+SAA1-mediated secretion of TNF-α (CD14^+ monocytes; [1]): significantly reduced

SMILES: Cc1ccc(S(=O)(=O)/C=C/C#N)cc1 [BAY 11-7082]
- HDL+SAA1-mediated increases in miR-155-5p (miR-155-5p; BAY-11-7082 10 μM): attenuated
- HDL+SAA1-mediated increases in cytokine secretion (CD14^+ monocytes; BAY-11-7082 10 μM): prevented

SMILES: NC(=O)Nc1sc(-c2ccc(F)cc2)cc1C(N)=O [TPCA1]
- HDL+SAA1-mediated increases in miR-155-5p (miR-155-5p; TPCA-1 1 μM): attenuated
- HDL+SAA1-mediated increases in cytokine secretion (CD14^+ monocytes; TPCA-1 1 μM): prevented
